Test results from ChEMBL document CHEMBL3727344, “2-fluoro-benzenesulfonamide compounds as RAF kinase modulators” (2014).
pIC50: −log10 of the molar value.

How the values were obtained:
[1] = target: Serine/threonine-protein kinase B-raf (Homo sapiens, UniProt P15056, V600E); assay: Inhibition of B-Raf V600E mutant (unknown origin)
[2] = target: RAF proto-oncogene serine/threonine-protein kinase (Homo sapiens, UniProt P04049); assay: Inhibition of c-Raf 1 (unknown origin)
[3] = target: T1, Serine/threonine-protein kinase A-Raf (Homo sapiens, UniProt P10398); assay: Inhibition of A-Raf (unknown origin)
T1 sequence (P10398 whole entry): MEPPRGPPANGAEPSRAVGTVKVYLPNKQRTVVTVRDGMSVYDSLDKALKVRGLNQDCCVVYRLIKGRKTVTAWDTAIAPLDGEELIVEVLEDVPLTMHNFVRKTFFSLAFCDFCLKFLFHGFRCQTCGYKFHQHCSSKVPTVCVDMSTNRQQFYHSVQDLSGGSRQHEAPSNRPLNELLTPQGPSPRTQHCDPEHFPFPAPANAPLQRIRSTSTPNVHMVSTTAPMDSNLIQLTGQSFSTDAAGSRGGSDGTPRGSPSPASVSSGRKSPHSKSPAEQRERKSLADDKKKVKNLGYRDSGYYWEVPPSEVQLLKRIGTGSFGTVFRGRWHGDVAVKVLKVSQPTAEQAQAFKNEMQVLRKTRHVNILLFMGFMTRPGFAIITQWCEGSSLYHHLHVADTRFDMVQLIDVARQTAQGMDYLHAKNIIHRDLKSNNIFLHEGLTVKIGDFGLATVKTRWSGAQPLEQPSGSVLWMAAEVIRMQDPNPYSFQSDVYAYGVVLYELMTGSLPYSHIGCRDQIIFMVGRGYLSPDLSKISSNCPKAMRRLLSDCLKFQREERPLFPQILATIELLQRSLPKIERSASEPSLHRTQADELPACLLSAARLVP

[4] = target: Macrophage colony-stimulating factor 1 receptor (Homo sapiens, UniProt P07333); assay: Inhibition of Fms (unknown origin)
Chain of Macrophage colony-stimulating factor 1 receptor (P07333 whole entry): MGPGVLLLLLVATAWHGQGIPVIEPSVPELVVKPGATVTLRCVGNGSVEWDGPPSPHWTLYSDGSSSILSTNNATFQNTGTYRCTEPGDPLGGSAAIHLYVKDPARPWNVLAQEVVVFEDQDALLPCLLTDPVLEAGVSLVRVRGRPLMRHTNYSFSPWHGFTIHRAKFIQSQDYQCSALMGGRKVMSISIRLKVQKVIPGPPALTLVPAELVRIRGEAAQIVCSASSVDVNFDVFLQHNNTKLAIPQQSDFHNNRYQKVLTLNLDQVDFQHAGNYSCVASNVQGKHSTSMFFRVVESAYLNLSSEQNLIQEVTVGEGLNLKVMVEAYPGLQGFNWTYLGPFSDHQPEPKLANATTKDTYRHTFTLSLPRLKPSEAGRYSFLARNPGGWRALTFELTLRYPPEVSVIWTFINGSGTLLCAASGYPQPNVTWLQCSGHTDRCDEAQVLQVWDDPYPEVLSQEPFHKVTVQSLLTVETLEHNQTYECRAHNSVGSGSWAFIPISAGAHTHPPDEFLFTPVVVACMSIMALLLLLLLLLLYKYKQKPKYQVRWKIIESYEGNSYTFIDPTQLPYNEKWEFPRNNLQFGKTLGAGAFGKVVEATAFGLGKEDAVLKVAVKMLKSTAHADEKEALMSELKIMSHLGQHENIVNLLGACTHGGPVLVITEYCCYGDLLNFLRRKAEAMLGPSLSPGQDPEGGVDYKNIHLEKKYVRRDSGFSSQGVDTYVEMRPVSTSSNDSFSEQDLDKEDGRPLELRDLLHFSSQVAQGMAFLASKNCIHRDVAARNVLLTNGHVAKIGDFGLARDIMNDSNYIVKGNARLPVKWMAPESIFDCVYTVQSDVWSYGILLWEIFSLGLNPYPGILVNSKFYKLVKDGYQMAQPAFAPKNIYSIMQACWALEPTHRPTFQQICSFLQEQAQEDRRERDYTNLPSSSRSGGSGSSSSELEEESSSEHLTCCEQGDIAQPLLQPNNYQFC

[5] = target: Serine/threonine-protein kinase B-raf (Homo sapiens, UniProt P15056); assay: Inhibition of B-Raf (unknown origin)
Chain of Serine/threonine-protein kinase B-raf (Homo sapiens, UniProt P15056) (P15056 whole entry): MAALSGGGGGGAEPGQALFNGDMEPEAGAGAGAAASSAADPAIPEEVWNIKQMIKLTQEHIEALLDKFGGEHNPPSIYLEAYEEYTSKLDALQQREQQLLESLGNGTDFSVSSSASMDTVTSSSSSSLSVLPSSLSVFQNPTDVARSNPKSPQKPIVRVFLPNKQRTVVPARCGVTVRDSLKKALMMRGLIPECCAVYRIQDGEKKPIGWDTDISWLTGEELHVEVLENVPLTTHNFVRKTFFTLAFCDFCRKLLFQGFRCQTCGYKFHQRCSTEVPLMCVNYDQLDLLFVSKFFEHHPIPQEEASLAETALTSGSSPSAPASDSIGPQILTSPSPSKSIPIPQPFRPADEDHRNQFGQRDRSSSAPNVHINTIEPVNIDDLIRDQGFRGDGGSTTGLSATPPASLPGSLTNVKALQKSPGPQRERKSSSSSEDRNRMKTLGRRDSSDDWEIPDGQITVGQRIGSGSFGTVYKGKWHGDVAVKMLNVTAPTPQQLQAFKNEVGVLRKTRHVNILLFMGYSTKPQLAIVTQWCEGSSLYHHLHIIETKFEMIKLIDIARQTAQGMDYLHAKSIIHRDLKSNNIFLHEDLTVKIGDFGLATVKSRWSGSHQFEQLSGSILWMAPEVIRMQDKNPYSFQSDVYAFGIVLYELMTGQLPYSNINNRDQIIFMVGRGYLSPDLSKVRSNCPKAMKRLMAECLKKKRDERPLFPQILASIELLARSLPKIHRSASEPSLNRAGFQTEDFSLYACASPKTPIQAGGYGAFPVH

[6] = target: Vascular endothelial growth factor receptor 2 (Homo sapiens, UniProt P35968); assay: Inhibition of Kdr (unknown origin)
[7] = target: Tyrosine-protein kinase BTK (Homo sapiens, UniProt Q06187); assay: Inhibition of Btk (unknown origin)
[8] = target: Proto-oncogene tyrosine-protein kinase Src (Homo sapiens, UniProt P12931); assay: Inhibition of Src (unknown origin)
Chain of Proto-oncogene tyrosine-protein kinase Src (P12931 2-536 limits assumed): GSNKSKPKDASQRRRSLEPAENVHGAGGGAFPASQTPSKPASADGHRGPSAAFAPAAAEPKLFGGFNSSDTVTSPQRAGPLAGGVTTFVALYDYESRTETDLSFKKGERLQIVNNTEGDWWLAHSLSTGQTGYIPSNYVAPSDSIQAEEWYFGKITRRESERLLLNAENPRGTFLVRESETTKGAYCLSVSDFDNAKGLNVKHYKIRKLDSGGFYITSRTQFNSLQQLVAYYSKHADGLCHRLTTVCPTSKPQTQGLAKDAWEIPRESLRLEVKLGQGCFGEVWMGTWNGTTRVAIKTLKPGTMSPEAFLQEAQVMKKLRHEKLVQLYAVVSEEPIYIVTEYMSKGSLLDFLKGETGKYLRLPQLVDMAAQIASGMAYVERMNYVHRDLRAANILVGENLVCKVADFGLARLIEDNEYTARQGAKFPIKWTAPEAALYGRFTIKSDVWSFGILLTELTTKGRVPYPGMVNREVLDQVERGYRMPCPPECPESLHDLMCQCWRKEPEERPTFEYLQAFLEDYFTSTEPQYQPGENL

[9] = target: Mast/stem cell growth factor receptor Kit (Homo sapiens, UniProt P10721); assay: Inhibition of Kit (unknown origin)
[10] = target: High affinity nerve growth factor receptor (Homo sapiens, UniProt P04629); assay: Inhibition of TrkA (unknown origin)
Chain of High affinity nerve growth factor receptor (P04629 whole entry): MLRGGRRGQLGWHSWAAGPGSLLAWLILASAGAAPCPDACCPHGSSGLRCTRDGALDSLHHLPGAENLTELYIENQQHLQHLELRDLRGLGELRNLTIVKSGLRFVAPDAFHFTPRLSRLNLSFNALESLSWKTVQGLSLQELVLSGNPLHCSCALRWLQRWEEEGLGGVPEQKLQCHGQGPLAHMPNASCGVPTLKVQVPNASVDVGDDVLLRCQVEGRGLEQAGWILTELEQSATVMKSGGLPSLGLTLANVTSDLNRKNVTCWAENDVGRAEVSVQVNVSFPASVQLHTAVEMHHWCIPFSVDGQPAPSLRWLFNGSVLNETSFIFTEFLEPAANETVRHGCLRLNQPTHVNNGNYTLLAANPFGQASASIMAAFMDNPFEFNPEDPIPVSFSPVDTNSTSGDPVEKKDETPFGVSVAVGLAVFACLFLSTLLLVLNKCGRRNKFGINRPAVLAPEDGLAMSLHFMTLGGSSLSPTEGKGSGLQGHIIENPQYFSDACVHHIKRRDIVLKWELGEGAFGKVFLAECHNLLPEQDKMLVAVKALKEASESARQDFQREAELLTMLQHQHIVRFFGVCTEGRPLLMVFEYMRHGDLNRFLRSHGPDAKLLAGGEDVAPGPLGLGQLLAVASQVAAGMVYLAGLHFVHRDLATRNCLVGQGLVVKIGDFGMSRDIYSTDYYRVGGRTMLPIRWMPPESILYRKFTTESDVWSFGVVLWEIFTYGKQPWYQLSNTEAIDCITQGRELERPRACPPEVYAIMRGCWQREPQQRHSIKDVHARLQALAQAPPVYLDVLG

[11] = target: Tyrosine-protein kinase CSK (Homo sapiens, UniProt P41240); assay: Inhibition of Csk (unknown origin)
[12] = target: Tyrosine-protein kinase Lck (Homo sapiens, UniProt P06239); assay: Inhibition of Lck (unknown origin)
[13] = target: Protein-tyrosine kinase 6 (Homo sapiens, UniProt Q13882); assay: Inhibition of Brk (unknown origin)
[14] = target: Tyrosine-protein kinase Lyn (Homo sapiens, UniProt P07948); assay: Inhibition of Lyn (unknown origin)
[15] = target: Tyrosine-protein kinase Yes (Homo sapiens, UniProt P07947); assay: Inhibition of Yes (unknown origin)
Chain of Tyrosine-protein kinase Yes (P07947 whole entry): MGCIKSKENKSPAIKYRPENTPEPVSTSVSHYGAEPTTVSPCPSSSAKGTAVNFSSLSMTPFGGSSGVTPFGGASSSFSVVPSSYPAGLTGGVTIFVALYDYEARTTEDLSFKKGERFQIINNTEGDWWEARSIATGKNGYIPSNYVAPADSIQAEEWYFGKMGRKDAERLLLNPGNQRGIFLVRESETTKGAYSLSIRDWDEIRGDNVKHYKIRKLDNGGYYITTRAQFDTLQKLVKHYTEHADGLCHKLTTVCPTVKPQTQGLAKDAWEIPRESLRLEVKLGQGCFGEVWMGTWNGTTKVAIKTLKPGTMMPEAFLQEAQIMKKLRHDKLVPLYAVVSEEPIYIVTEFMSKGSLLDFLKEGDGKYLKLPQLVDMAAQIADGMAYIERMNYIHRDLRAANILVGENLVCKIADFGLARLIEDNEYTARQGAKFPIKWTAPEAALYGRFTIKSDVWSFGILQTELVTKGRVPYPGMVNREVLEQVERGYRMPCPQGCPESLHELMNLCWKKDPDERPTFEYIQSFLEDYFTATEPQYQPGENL

Focal adhesion kinase 1 = Focal adhesion kinase 1 (Homo sapiens, UniProt Q05397); assay: Inhibition of Fak (unknown origin)

Chain of RAF proto-oncogene serine/threonine-protein kinase (P04049 whole entry): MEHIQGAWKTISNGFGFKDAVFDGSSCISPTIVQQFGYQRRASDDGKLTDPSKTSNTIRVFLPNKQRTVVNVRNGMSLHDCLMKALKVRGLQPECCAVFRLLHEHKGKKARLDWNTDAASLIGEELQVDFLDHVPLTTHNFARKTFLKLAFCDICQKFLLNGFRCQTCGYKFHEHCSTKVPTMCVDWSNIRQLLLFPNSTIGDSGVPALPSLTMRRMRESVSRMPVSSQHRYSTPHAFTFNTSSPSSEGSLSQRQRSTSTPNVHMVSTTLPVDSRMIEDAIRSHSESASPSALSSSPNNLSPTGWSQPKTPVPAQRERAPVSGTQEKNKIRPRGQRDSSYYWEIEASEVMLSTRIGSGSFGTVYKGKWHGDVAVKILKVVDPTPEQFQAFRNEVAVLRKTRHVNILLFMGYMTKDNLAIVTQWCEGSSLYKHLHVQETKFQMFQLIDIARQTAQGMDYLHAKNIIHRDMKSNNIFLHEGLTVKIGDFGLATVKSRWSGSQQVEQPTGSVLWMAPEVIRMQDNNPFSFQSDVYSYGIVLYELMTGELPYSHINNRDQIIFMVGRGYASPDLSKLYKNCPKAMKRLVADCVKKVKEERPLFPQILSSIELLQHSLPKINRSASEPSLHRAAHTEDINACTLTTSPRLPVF
Chain of Serine/threonine-protein kinase B-raf (Homo sapiens, UniProt P15056, V600E) (P15056 2-766 V600E limits assumed): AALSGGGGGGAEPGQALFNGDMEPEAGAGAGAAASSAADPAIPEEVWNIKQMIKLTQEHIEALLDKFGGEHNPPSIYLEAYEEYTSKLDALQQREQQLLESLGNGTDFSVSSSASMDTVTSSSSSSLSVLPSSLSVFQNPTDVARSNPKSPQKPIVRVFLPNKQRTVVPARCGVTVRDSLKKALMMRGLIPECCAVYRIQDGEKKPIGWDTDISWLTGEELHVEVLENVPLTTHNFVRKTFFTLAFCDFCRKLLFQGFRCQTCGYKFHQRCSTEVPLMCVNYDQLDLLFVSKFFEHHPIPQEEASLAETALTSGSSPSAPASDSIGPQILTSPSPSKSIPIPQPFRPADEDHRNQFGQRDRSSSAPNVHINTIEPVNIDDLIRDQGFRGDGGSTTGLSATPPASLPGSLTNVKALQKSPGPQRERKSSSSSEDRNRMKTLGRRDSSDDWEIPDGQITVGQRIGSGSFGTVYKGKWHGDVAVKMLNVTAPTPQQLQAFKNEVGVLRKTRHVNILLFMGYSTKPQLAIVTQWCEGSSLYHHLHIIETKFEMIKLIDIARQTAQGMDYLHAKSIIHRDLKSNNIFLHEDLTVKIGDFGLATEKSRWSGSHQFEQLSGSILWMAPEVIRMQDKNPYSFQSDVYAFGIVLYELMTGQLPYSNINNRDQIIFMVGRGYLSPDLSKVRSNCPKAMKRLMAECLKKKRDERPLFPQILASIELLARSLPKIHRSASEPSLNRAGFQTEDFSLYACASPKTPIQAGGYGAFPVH

pIC50 [1] | pIC50 [2] | pIC50 [3] | pIC50 [5] | SMILES | other results
≥ 5.00 | ≥ 5.00 | ≥ 5.00 |  | CCCS(=O)(=O)Nc1ccc(F)c(CNc2cnc3ccccc3c2)c1F | 
≥ 5.00 |  | ≥ 5.00 |  | CCCS(=O)(=O)Nc1ccc(F)c(COc2cnc3ccccc3c2)c1F | pIC50 [4]: ≥ 5.00
 |  | ≥ 5.00 |  | CCCS(=O)(=O)Nc1ccc(Cl)c(C(=O)Nc2cc(-c3ccc(Cl)cc3)n[nH]2)c1F | pIC50 [4]: ≥ 5.00
≥ 5.00 |  |  | ≥ 5.00 | CCCS(=O)(=O)Nc1ccc(Cl)c(C(=O)Nc2cnc3ccccn23)c1F | 
≥ 5.00 | ≥ 5.00 | ≥ 5.00 | ≥ 5.00 | CCCS(=O)(=O)Nc1ccc(Cl)c(C(=O)Nc2ccc(NCc3cccs3)nc2)c1F | 
 |  | ≥ 5.00 |  | CCCS(=O)(=O)Nc1ccc(Cl)c(C(=O)Nc2ccc(NC(=O)N3CCCC3)nc2)c1F | 
≥ 5.00 | ≥ 5.00 | ≥ 5.00 | ≥ 5.00 | CCCS(=O)(=O)Nc1ccc(Cl)c(C(=O)Nc2ccc(NC3CC3)nc2)c1F | 
 |  | ≥ 5.00 |  | CCCS(=O)(=O)Nc1ccc(Cl)c(C(=O)Nc2nnc(Cc3ccc(Cl)cc3)s2)c1F | 
≥ 5.00 | ≥ 5.00 | ≥ 5.00 | ≥ 5.00 | CCCS(=O)(=O)Nc1ccc(F)c(C(=O)Nc2ccc(NC(C)=O)nc2)c1F | 
≥ 5.00 | ≥ 5.00 | ≥ 5.00 | ≥ 5.00 | CCCS(=O)(=O)Nc1ccc(F)c(C(=O)Nc2cnc3ccccc3c2)c1F | 
≥ 5.00 | ≥ 5.00 | ≥ 5.00 | ≥ 5.00 | CCCS(=O)(=O)Nc1ccc(Cl)c(C(=O)Nc2ccc(Nc3ncc(C)s3)nc2)c1F | pIC50 [6]: ≥ 5.00; pIC50 [7]: ≥ 5.00; pIC50 [8]: ≥ 5.00; pIC50 [9]: ≥ 5.00; pIC50 [10]: ≥ 5.00
≥ 5.00 | ≥ 5.00 | ≥ 5.00 | ≥ 5.00 | CCCS(=O)(=O)Nc1ccc(Cl)c(C(=O)Nc2cnc3ccccc3c2)c1F | 
≥ 5.00 |  | ≥ 5.00 |  | CCCS(=O)(=O)Nc1ccc(F)c(NCc2cnc3ccccc3c2)c1F | 
≥ 5.00 |  | ≥ 5.00 |  | CCCS(=O)(=O)Nc1ccc(Cl)c(C(=O)Nc2ccc(NC(C)C)nc2)c1F | 
≥ 5.00 | ≥ 5.00 | ≥ 5.00 | ≥ 5.00 | CCCS(=O)(=O)Nc1ccc(Cl)c(C(=O)Nc2ccc(NC(C)=O)nc2)c1F | pIC50 [11]: ≥ 5.00; pIC50 [12]: ≥ 5.00; pIC50 [13]: ≥ 5.00; pIC50 [8]: ≥ 5.00; pIC50 [10]: ≥ 5.00; pIC50 [14]: ≥ 5.00; pIC50 [15]: ≥ 5.00; pIC50 (Focal adhesion kinase 1): ≥ 5.00
 | ≥ 5.00 | ≥ 5.00 |  | CCCS(=O)(=O)Nc1ccc(Cl)c(C(=O)Nc2ccc(NC3CCCC3)nc2)c1F | 
≥ 5.00 | ≥ 5.00 | ≥ 5.00 | ≥ 5.00 | CCCS(=O)(=O)Nc1ccc(Cl)c(C(=O)Nc2cnc(NC(C)=O)nc2)c1F | 
≥ 5.00 | ≥ 5.00 | ≥ 5.00 | ≥ 5.00 | CCCS(=O)(=O)Nc1ccc(Cl)c(C(=O)Nc2ccc(NCc3ccccc3)nc2)c1F | 
≥ 5.00 | ≥ 5.00 | ≥ 5.00 |  | CCCS(=O)(=O)Nc1ccc(F)c(CNc2ccc(NC(C)=O)nc2)c1F | 
≥ 5.00 | ≥ 5.00 | ≥ 5.00 |  | CCCS(=O)(=O)Nc1ccc(Cl)c(C(=O)Nc2cccnc2)c1F | 
